This passage reports activity and inhibition results from patent US20030134859A1 (SANKYO COMPANY, LIMITED, priority 2000, published 2003).

For assay [1], the system named is Mouse preadipocyte strain 3T3-L1. Briefly: Inhibition of differentiation as an indication of acetic acid uptake. In kind it is cell-based. The note with it: Mus musculus, 3T3-L1, 0.1 μM test substance, control (0.01% dimethylsulfoxide) = 100%, read-out: Rate of Uptake (%) of [2-14C] acetic acid. Put shortly: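 Confluent 3T3-L1 cells induced to differentiate for 4 days (insulin, IBMX, dexamethasone, 5% FBS) with test compound at 0.1 μM final or 0.01% DMSO, then 2 days in insulin maintenance medium, at 37 °C, 10% CO2. [2-14C]acetic acid uptake over 1 hr counted by scintillation; expressed as % of DMSO control.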

The subject of assay [2] is Rat white adipocytes. The experiment in a line: Stimulation of differentiation of the adipocytes (Oil Red O). Type of assay: cell-based. The note with it: Rattus norvegicus, Adipocyte, 120 h, 100 nM test compound; 5 days; Oil Red O ABS550; control = 100%, blank = 0%; Table 7; read-out: Rate of Differentiation (%). Put shortly: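 Rat white adipocytes, 5,000 cells/well, cultured 5 days in differentiation-inducing medium with test compound at final 100 nM (0.1% DMSO). Cells fixed, stained with Oil Red O, dye extracted in DMSO and read at 550 nm; differentiation rate expressed relative to vehicle control (100%) and cell-free blank (0%).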

In assay [3] the test system is TNF-α production. The experiment in a line: Inhibitory activity against cytokine (TNF-α) production in LPS-stimulated RAW264.7 cells. Type of assay: cell-based, mouse. The note with it: Mus musculus, RAW264.7, 15 h, 1 μM test compound, LPS 10 ng/mL. The method, then:
The mouse monocyte/macrophage cell line, RAW264.7 (ATCC TIB71) was purchased from Dainippon Pharmaceutical Co., Ltd. The RAW264.7 cells were cultured in a CO2 incubator (37° C., 95% of humidity, 5% of CO2) by using the Dulbecco's modified Eagle's medium (DMEM medium; GIBCO, Cat. No. 11995-040) containing bovine fetal serum (the final concentration: 10% (v/v), MOREGATE, lot No. 474030), penicillin G (the final concentration: 50 units/mL […], GIBCO) and streptomycin (the final concentration: 20 μg/mL, GIBCO).
Sixty (60) μL of the RAW264.7 cell suspension (83,000 cells/mL) were plated into each well of a 96-well microplate (5,000 cells/well). After the cells were cultured for 4 hr in a CO2 incubator, 40 μL of DMEM medium containing 25 ng/mL of LPS (Sigma-Aldrich Japan K. K.) were added into each well (final concentration of LPS: 10 ng/mL). The test compound dissolved in DMSO at a concentration of 1 mM was diluted with DMEM medium by 20 times. Then 2 μL/well of the diluted solution were added to wells containing the plated cells (final concentration of the test compound: 1 μM). As the control, 2 μL/well of DMSO diluted with DMEM medium by 20 times were added to wells containing the plated cells either with LPS (final concentration: 10 ng/mL) or without LPS. After these cells were cultured in a CO2 incubator for 15 hr, the supernatant of the medium was recovered. The amount of mTNF-α in the medium supernatant was determined with a mouse TNF-α ELISA kit Quantikine M (R&D System), according to the experiment protocol attached with the kit.
The inhibitory activity of the test compound against TNF-α production was calculated according to the following equation.
A: The amount of TNF-α in the presence of test compound
B: The amount of TNF-α in the control without LPS
C: The amount of TNF-α in the control with 10 ng/mL of LPS
Inhibitory Activity of the Test Compound against TNF-α Production (%)=100−(A−B)/(C−B)×100

Assay [4] concerns Rat white adipocytes. The experiment in a line: Inhibition of the differentiation of adipocytes (Oil Red O). As to conditions: Rattus norvegicus, Adipocyte, 120 h, 100 nM test compound; 5 days; Oil Red O ABS550; control = 100%, blank = 0%; Table 3; read-out: Rate of Differentiation (%). Type of assay: cell-based. Put shortly:
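Rat white preadipocytes, 5,000 cells/well, given differentiation medium with compound at 100 nM final (0.1% DMSO) for 5 days at 37 °C. Lipid stained with Oil Red O, eluted in DMSO, read at 550 nm; differentiation % relative to DMSO control (100%) and blank (0%).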

Each structure is given as a SMILES string.

With `CCc1ccc(NC(=O)c2cc([N+](=O)[O-])ccc2Cl)cc1` [Example 12, N-(4-Ethylphenyl)-(2-chloro-5-nitrophenyl)carboxamide], the activity at 0.1 µM in assay [1] was found to be 66.4%; in assay [2], 120%. In assay [3], this compound displayed an inhibition at 1 µM of 21.8%.
In the same order, the values of `CCc1ccccc1NC(=O)c1cc([N+](=O)[O-])ccc1Cl` [Example 13, N-(2-Ethylphenyl)-(2-chloro-5-nitrophenyl)carboxamide] are 93%, 127% and 16.2%.
The corresponding values for `O=C(Nc1nc2ccc(Cl)cc2s1)c1cc([N+](=O)[O-])ccc1Cl` [Example 68, N-(6-Chlorobenzothiazol-2-yl)-(2-chloro-5-nitrophenyl)carboxamide] are 67.9%, 116% and 15.2%.
The corresponding values for `O=C(Nc1ccc(NC(=O)c2cc([N+](=O)[O-])ccc2Cl)cc1)c1cccnc1` [Example 123, N-[4-(Pyridin-3-ylcarbonylamino)phenyl]-(2-chloro-5-nitrophenyl)carboxamide] are 96.2%, 148% and 15.1%.
As for `CC(=O)Oc1ccc(-c2ccc(NC(=O)c3cc([N+](=O)[O-])ccc3Cl)cc2)cc1` [Example 134, N-[4-(4-Acetoxyphenyl)phenyl]-(2-chloro-5-nitrophenyl)carboxamide], the activity at 0.1 µM in assay [2] amounted to 120%. The compound also returned an inhibition at 1 µM in assay [3] of 16.4%.
Regarding `CCOC(=O)NC(=O)Nc1ccc(-c2ccc(NC(=O)c3cc([N+](=O)[O-])ccc3Cl)cc2)cc1` [Example 244, N-[4-[4-(Ethoxycarbonylaminocarbonylamino)phenyl]phenyl]-(2-chloro-5-nitrophenyl)carboxamide], the activity at 0.1 µM in assay [4] came out at 45%. Also, in assay [3], the inhibition at 1 µM was found to be 26.5%.
For the compound `O=C(NCc1ccccc1)Nc1ccc(-c2ccc(NC(=O)c3cc([N+](=O)[O-])ccc3Cl)cc2)cc1` [Example 248, N-[4-[4-(Benzylaminocarbonylamino)phenyl]phenyl]-(2-chloro-5-nitrophenyl)carboxamide], in assay [4], the activity at 0.1 µM was found to be 64.4%. Moreover, in assay [3], at 1 µM the inhibition was 19.1%.
The corresponding values for `Nc1cccc(-c2csc(NC(=O)c3cc([N+](=O)[O-])ccc3Cl)n2)c1` [Example 253, N-[4-(3-Aminophenyl)thiazol-2-yl]-(2-chloro-5-nitrophenyl)carboxamide] are 55.7% and 29%.

The inhibition is the change of the read-out against control, counted positive when it falls. Read a high inhibition as a response far below the control.
